Each compound was assayed against PIK3CA (human) (UniProt P42336) (assay: Cell-Based Assay). Conditions: bt20.
Sequence of PIK3CA (human) (P42336 whole entry, looked up): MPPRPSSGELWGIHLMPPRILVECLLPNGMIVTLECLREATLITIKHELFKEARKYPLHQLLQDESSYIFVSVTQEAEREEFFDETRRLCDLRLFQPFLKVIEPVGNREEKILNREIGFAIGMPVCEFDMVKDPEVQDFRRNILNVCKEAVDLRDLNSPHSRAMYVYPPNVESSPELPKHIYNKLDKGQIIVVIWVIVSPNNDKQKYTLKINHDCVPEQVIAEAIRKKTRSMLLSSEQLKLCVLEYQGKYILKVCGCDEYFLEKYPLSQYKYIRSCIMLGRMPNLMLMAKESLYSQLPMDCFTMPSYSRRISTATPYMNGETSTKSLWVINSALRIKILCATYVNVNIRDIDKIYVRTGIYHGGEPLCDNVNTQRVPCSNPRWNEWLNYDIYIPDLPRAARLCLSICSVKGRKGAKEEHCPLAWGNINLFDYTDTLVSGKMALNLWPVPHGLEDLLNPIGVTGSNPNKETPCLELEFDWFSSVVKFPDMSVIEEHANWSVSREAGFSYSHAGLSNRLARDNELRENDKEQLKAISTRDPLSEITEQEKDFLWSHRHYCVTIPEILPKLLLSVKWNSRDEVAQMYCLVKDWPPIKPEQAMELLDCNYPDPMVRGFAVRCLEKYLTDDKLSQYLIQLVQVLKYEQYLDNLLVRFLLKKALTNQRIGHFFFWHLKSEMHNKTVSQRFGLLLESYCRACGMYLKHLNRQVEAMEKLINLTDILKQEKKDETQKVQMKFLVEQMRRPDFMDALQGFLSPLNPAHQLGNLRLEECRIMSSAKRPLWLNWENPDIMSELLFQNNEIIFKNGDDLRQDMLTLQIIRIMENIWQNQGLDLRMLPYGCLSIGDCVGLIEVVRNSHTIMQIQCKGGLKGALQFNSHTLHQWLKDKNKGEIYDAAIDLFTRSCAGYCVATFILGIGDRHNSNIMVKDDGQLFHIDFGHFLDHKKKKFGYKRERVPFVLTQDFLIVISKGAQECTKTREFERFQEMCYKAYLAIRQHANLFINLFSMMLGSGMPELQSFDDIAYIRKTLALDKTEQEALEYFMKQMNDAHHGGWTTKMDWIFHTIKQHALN
In the case of `COc1cccc(-c2ccc3ncc4c(c3n2)n(C2CCN(C(=O)CO)CC2)c(=O)n4C)c1`, the IC50 is reported as 30.4 nM.
For `COc1ccc(-c2ccc3ncc4c(c3n2)n(C2CCN(C(=O)CN(C)C)CC2)c(=O)n4C)cn1`, the IC50 was 14.4 nM.
In the case of `Cn1c(=O)n(C2CCN(C(=O)C(C)(C)O)CC2)c2c3nc(-c4cnc5ccccc5c4)ccc3ncc21`, the IC50 is reported as 28 nM.
Work on `CN(C)c1ccc(-c2ccc3ncc4c(c3n2)n(C2CCN(CC(F)(F)F)CC2)c(=O)n4C)cn1` yielded an IC50 of 18.2 nM.
For `CCC(=O)N1CCC(n2c(=O)n(C)c3cnc4ccc(-c5cnc6ccccc6c5)nc4c32)CC1`, the IC50 was 7.86 nM.
In the case of `Cn1c(=O)n([C@H]2CC[C@H](N)CC2)c2c3nc(-c4cnc5ccccc5c4)ccc3ncc21`, the IC50 is reported as 46.4 nM.
`Cn1c(=O)n(C2CCOCC2)c2c3nc(-c4cn[nH]c4)ccc3ncc21` showed an IC50 of 18.3 nM.
With `Cc1ccc(-c2ccc3ncc4c(c3n2)n(C2CCN(c3ncccn3)CC2)c(=O)n4C)cn1` the IC50 was 41.4 nM.
Work on `CNC(=O)N1CCC(n2c(=O)n(C)c3cnc4ccc(-c5ccc(C)nc5)nc4c32)CC1` yielded an IC50 of 59.4 nM.
With `CN(C)c1ccc(-c2ccc3ncc4c(c3n2)n(-c2ccc(C(C)(C)C#N)cc2)c(=O)n4C)cn1` the IC50 was 30.9 nM.
Compound `COc1ccc(-c2ccc3ncc4c(c3n2)n([C@H](C)CO)c(=O)n4C)cn1` has an IC50 of 237 nM.
`CN(C)CC(=O)N1CCC(n2c(=O)n(C)c3cnc4ccc(-c5cnc6ccccc6c5)nc4c32)CC1` showed an IC50 of 18 nM.
Compound `CCNC(=O)Nc1ccc(-c2ccc3ncc4c(c3n2)n(C2CCN(C(=O)OC(C)(C)C)CC2)c(=O)n4C)cc1` has an IC50 of 39.9 nM.
Compound `Cc1ccc(-c2ccc3ncc4c(c3n2)n(C2CCNCC2)c(=O)n4C)cn1` has an IC50 of 101 nM.
Work on `Cc1ccc(-c2ccc3ncc4c(c3n2)n(C2CCOCC2)c(=O)n4CCO)cn1` yielded an IC50 of 428 nM.
`CC(=O)N1CCC(n2c(=O)n(C)c3cnc4ccc(-c5cnn(C)c5)nc4c32)CC1` gave an IC50 of 133 nM.
Work on `C[C@H](O)C(=O)N1CCC(n2c(=O)n(C)c3cnc4ccc(-c5ccnc6[nH]ncc56)nc4c32)CC1` yielded an IC50 of 218 nM.
In the case of `COc1ncc(-c2ccc3ncc4c(c3n2)n(C2CCN(C(=O)CO)CC2)c(=O)n4C)cn1`, the IC50 is reported as 27.2 nM.
Work on `CN(C)c1ccc(-c2ccc3ncc4c(c3n2)n([C@H]2CC[C@H](OCCO)CC2)c(=O)n4C)cn1` yielded an IC50 of 11.6 nM.
Compound `Cn1cc(-c2ccc3ncc4c(c3n2)n(C2CCOCC2)c(=O)n4C)cn1` has an IC50 of 71.8 nM.
For `Cn1c(=O)n([C@H]2CC[C@H](O)CC2)c2c3nc(-c4cccc5[nH]ccc45)ccc3ncc21`, the IC50 was 9.61 nM.
Work on `COc1cccc(-c2ccc3ncc4c(c3n2)n(C2CCN(C(C)=O)CC2)c(=O)n4C)c1` yielded an IC50 of 57.7 nM.
In the case of `CC(=O)N1CCC(n2c(=O)n(C)c3cnc4ccc(-c5cccc6ncccc56)nc4c32)CC1`, the IC50 is reported as 194 nM.
`CCOC(=O)N1CCC(n2c(=O)n(C)c3cnc4ccc(-c5cnc6ccccc6c5)nc4c32)CC1` was tested, and the IC50 was 20.4 nM.
`Cc1ccc(-c2ccc3ncc4c(c3n2)n(C2CCN(C(N)=O)CC2)c(=O)n4C)cn1` was tested, and the IC50 was 112 nM.
Compound `Cc1ccc(-c2ccc3ncc4c(c3n2)n(C2CCN(C)CC2)c(=O)n4C)cn1` has an IC50 of 22.8 nM.
Work on `O=C(OCc1ccccc1)N1CCC(n2c(=O)[nH]c3cnc4ccc(-c5cnc6ccccc6c5)nc4c32)CC1` yielded an IC50 of 32.2 nM.
In the case of `C[C@@H](CO)n1c(=O)n(C)c2cnc3ccc(-c4cnn(C)c4)nc3c21`, the IC50 is reported as 5040 nM.
`COc1ncc(-c2ccc3ncc4c(c3n2)n(C2CCN(CC(N)=O)CC2)c(=O)n4C)cn1` showed an IC50 of 90.3 nM.
`COCCN1CCC(n2c(=O)n(C)c3cnc4ccc(-c5ccc(N(C)C)nc5)nc4c32)CC1` showed an IC50 of 31.8 nM.
`COc1cccc(-c2ccc3ncc4c(c3n2)n(C2CCN(C(=O)[C@H](C)O)CC2)c(=O)n4C)c1` was tested, and the IC50 was 34.4 nM.
`Cc1ccc(-c2ccc3ncc4c(c3n2)n(C2CCOCC2)c(=O)n4C)cn1` was tested, and the IC50 was 27.3 nM.
`C[C@H](CO)n1c(=O)n(C)c2cnc3ccc(-c4cccc5[nH]ccc45)nc3c21` gave an IC50 of 55.3 nM.
With `COc1ccc(-c2ccc3ncc4c(c3n2)n(CCN2CCNCC2)c(=O)n4C)cn1` the IC50 was 344 nM.
With `C[C@@H](O)C(=O)N1CCC(n2c(=O)n(C)c3cnc4ccc(-c5cnc6[nH]ncc6c5)nc4c32)CC1` the IC50 was 29.4 nM.
In the case of `Cc1ccc(-c2ccc3ncc4c(c3n2)n(-c2ccc(C(C)(C)C#N)cc2)c(=O)n4C)cn1`, the IC50 is reported as 24.4 nM.
With `CN(C)CC(=O)N1CCC(n2c(=O)n(C)c3cnc4ccc(-c5ccc(N(C)C)nc5)nc4c32)CC1` the IC50 was 15.3 nM.
Work on `COc1ncc(-c2ccc3ncc4c(c3n2)n(C2CCOCC2)c(=O)n4C)cn1` yielded an IC50 of 98.9 nM.
`CC(=O)N1CCC(n2c(=O)n(C)c3cnc4ccc(-c5ccc(N(C)C)nc5)nc4c32)CC1` was tested, and the IC50 was 17.2 nM.
Work on `Cc1ccc(-c2ccc3ncc4c(c3n2)n(C2CCN(CCO)CC2)c(=O)n4C)cn1` yielded an IC50 of 35.6 nM.
`CC(C)C(=O)N1CCC(n2c(=O)n(C)c3cnc4ccc(-c5cnc6ccccc6c5)nc4c32)CC1` showed an IC50 of 29.4 nM.
In the case of `COc1ccc(-c2ccc3ncc4c(c3n2)n(C2CCN(C(=O)[C@H](C)O)CC2)c(=O)n4C)cc1`, the IC50 is reported as 14 nM.
Compound `C[C@H](CO)n1c(=O)n(C)c2cnc3ccc(-c4cnc(N)nc4)nc3c21` has an IC50 of 331 nM.
`COc1ncc(-c2ccc3ncc4[nH]c(=O)n(-c5ccc(C(C)(C)C#N)cc5)c4c3n2)cc1F` gave an IC50 of 197 nM.
For `Cn1cc(-c2ccc3ncc4c(c3n2)n([C@H]2CC[C@H](O)CC2)c(=O)n4C)cn1`, the IC50 was 107 nM.
Work on `Cn1c(=O)n([C@H]2CC[C@H](O)CC2)c2c3nc(-c4cnn(CCO)c4)ccc3ncc21` yielded an IC50 of 448 nM.
For `CC(=O)N1CCC(n2c(=O)n(C)c3cnc4ccc(-c5ccc(N)nc5)nc4c32)CC1`, the IC50 was 9.17 nM.
`O=c1[nH]c2cnc3ccc(-c4cnc5ccccc5c4)nc3c2n1C1CCNCC1` was tested, and the IC50 was 353 nM.
`COc1ncc(-c2ccc3ncc4c(c3n2)n(C2CCN(C)CC2)c(=O)n4C)cn1` was tested, and the IC50 was 159 nM.
`Cc1ccc(-c2ccc3ncc4c(c3n2)n([C@H]2CC[C@H](O)CC2)c(=O)n4C)cn1` showed an IC50 of 18.5 nM.
`CN(C)c1ccc(-c2ccc3ncc4c(c3n2)n(C2CCN(C(N)=O)CC2)c(=O)n4C)cn1` showed an IC50 of 35.8 nM.
Work on `Cn1cc(-c2ccc3ncc4c(c3n2)n(C2CCN(CC(N)=O)CC2)c(=O)n4C)cn1` yielded an IC50 of 232 nM.
With `CN1CCC(n2c(=O)n(C)c3cnc4ccc(-c5cnc6[nH]ncc6c5)nc4c32)CC1` the IC50 was 21.8 nM.
`COc1ncc(-c2ccc3ncc4c(c3n2)n(-c2ccc(C(C)(C)C#N)cc2)c(=O)n4C)cn1` was tested, and the IC50 was 27.2 nM.
`COc1ccc(-c2ccc3ncc4[nH]c(=O)n(-c5ccc(C(C)(C)C#N)cc5)c4c3n2)cn1` showed an IC50 of 11.5 nM.
`Cn1c(=O)n([C@H]2CC[C@H](O)CC2)c2c3nc(-c4cnc(N)nc4)ccc3ncc21` showed an IC50 of 3.36 nM.
Work on `CC(=O)N1CCC(n2c(=O)n(C)c3cnc4ccc(-c5ccc(S(C)(=O)=O)cc5)nc4c32)CC1` yielded an IC50 of 2580 nM.
`Cn1c(=O)n(-c2ccc(C(C)(C)C#N)cc2)c2c3nc(-c4cnc5ccccc5c4)ccc3ncc21` was tested, and the IC50 was 3.54 nM.
`N[C@H]1CC[C@H](n2c(=O)[nH]c3cnc4ccc(-c5cnc6ccccc6c5)nc4c32)CC1` gave an IC50 of 402 nM.
`Cc1ccc(-c2ccc3ncc4c(c3n2)n(C2CCN(CC(N)=O)CC2)c(=O)n4C)cn1` was tested, and the IC50 was 18.7 nM.
`CC(C)OC(=O)N1CCC(n2c(=O)n(C)c3cnc4ccc(-c5cnc6ccccc6c5)nc4c32)CC1` showed an IC50 of 19.6 nM.
`COc1ncc(-c2ccc3ncc4c(c3n2)n(C2CCN(C(=O)CN(C)C)CC2)c(=O)n4C)cn1` was tested, and the IC50 was 175 nM.
For `Cn1c(=O)n(C2CCN(C(=O)CO)CC2)c2c3nc(-c4cccc5[nH]ncc45)ccc3ncc21`, the IC50 was 60.4 nM.
For `CNC(=O)N1CCC(n2c(=O)n(C)c3cnc4ccc(-c5cnc6ccccc6c5)nc4c32)CC1`, the IC50 was 7.34 nM.
In the case of `Cn1cc(-c2ccc3ncc4c(c3n2)n(-c2ccc(C(C)(C)C#N)cc2)c(=O)n4C)cn1`, the IC50 is reported as 116 nM.
With `COCCn1c(=O)n(C)c2cnc3ccc(-c4ccc(OC)nc4)nc3c21` the IC50 was 207 nM.
Compound `COCC(=O)N1CCC(n2c(=O)n(C)c3cnc4ccc(-c5cnc6[nH]ncc6c5)nc4c32)CC1` has an IC50 of 15.3 nM.
`CNC(=O)N1CCC(n2c(=O)n(C)c3cnc4ccc(-c5ccc(N(C)C)nc5)nc4c32)CC1` gave an IC50 of 24.3 nM.
In the case of `COC(=O)N1CCC(n2c(=O)n(C)c3cnc4ccc(-c5cnc6ccccc6c5)nc4c32)CC1`, the IC50 is reported as 8.07 nM.
`COc1ncc(-c2ccc3ncc4c(c3n2)n([C@H]2CC[C@H](OCCO)CC2)c(=O)n4C)cn1` gave an IC50 of 26.3 nM.
With `Cn1c(=O)n(C2CCN(C(=O)CO)CC2)c2c3nc(-c4cnc5[nH]ncc5c4)ccc3ncc21` the IC50 was 59.4 nM.
`Cc1ccc(-c2ccc3ncc4c(c3n2)n([C@H](C)CO)c(=O)n4C)cn1` was tested, and the IC50 was 269 nM.
Work on `CN(C)c1ccc(-c2ccc3ncc4c(c3n2)n(C2CCN(CCO)CC2)c(=O)n4C)cn1` yielded an IC50 of 32.5 nM.
With `COc1ncc(-c2ccc3ncc4c(c3n2)n(C2CCN(C(C)=O)CC2)c(=O)n4C)cn1` the IC50 was 34.6 nM.
In the case of `COc1ccc(-c2ccc3ncc4c(c3n2)n(C2CCN(C(C)=O)CC2)c(=O)n4C)cc1`, the IC50 is reported as 11.3 nM.
`COc1ccc(-c2ccc3ncc4[nH]c(=O)n([C@H]5CC[C@H](OCCO)CC5)c4c3n2)cn1` was tested, and the IC50 was 38.4 nM.
`Cn1cc(-c2ccc3ncc4c(c3n2)n(C2CCN(CC(F)(F)F)CC2)c(=O)n4C)cn1` was tested, and the IC50 was 195 nM.
Compound `CN(C)c1ccc(-c2ccc3ncc4c(c3n2)n([C@H]2CC[C@H](O)CC2)c(=O)n4C)cn1` has an IC50 of 5.26 nM.
`Cn1c(=O)n(C2CCN(C(=O)OCc3ccccc3)CC2)c2c3nc(-c4cnc5ccccc5c4)ccc3ncc21` showed an IC50 of 13.4 nM.
In the case of `COc1ncc(-c2ccc3ncc4c(c3n2)n(C2CCN(C(=O)CN)CC2)c(=O)n4C)cn1`, the IC50 is reported as 184 nM.
`Cn1c(=O)n([C@H]2CC[C@H](O)CC2)c2c3nc(-c4cnc5ccccc5c4)ccc3ncc21` was tested, and the IC50 was 5.21 nM.
Work on `COc1ncc(-c2ccc3ncc4c(c3n2)n([C@H]2CC[C@H](C(N)=O)CC2)c(=O)n4C)cn1` yielded an IC50 of 45.6 nM.
Work on `CCNC(=O)N1CCC(n2c(=O)n(C)c3cnc4ccc(-c5cnc6ccccc6c5)nc4c32)CC1` yielded an IC50 of 17 nM.
Work on `CN(C)c1ccc(-c2ccc3ncc4c(c3n2)n(C2CCNCC2)c(=O)n4C)cn1` yielded an IC50 of 24.6 nM.
`Cn1c(=O)n([C@H]2CC[C@H](OCCO)CC2)c2c3nc(-c4cnc5ccccc5c4)ccc3ncc21` was tested, and the IC50 was 10.7 nM.
`COc1ccc(-c2ccc3ncc4c(c3n2)n(C2CCN(C(C)C)CC2)c(=O)n4C)cn1` gave an IC50 of 55.1 nM.
`Cn1c(=O)n([C@H]2CC[C@H](O)CC2)c2c3nc(-c4cn[nH]c4)ccc3ncc21` gave an IC50 of 19.7 nM.
In the case of `Cc1ccc(-c2ccc3ncc4c(c3n2)n(C2CCN(C(=O)CN)CC2)c(=O)n4C)cn1`, the IC50 is reported as 68.9 nM.
`CN(C)c1ccc(-c2ccc3ncc4[nH]c(=O)n(-c5ccc(C(C)(C)C#N)cc5)c4c3n2)cn1` gave an IC50 of 67.6 nM.
`CCN1CCC(n2c(=O)n(C)c3cnc4ccc(-c5cnc6ccccc6c5)nc4c32)CC1` was tested, and the IC50 was 11.7 nM.
`CN(C)c1ccc(-c2ccc3ncc4c(c3n2)n(C2CCN(C(=O)CO)CC2)c(=O)n4C)cn1` gave an IC50 of 6.23 nM.
